Target: human PDE4D catalytic domain (UniProt no. Q08499) (Homo sapiens (Human), UniProt Q08499)
Experiment: PDE4 assay (TR-FRET, FAM-cAMP cleavage)
Type: biochemical
Conditions: human PDE4D catalytic domain; molar concentration giving 50% inhibition of substrate cleavage; read-out: PDE4 IC50 range
Procedure, shortened: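 PDE4D catalytic domain ([…]) was incubated with unlabelled cAMP plus FAM-cAMP and titrated compound, stopped with binding buffer of metal-ion nanoparticles and Tb donor. AMP generation read by TR-FRET; IC50 as 50% inhibition of cleavage versus controls, reported as nM ranges.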

human PDE4D catalytic domain, sequence (Q08499 380-740 limits assumed): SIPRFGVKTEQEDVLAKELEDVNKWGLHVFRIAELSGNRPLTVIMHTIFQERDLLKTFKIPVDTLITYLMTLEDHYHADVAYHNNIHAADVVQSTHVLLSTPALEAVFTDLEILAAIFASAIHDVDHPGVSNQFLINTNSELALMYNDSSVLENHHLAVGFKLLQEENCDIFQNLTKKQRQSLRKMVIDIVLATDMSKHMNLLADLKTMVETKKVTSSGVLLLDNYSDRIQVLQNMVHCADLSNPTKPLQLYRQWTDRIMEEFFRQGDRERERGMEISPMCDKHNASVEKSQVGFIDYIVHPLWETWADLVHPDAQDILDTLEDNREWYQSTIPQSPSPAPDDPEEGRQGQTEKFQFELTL

SMILES	IC50
CCc1nn(CCCOC(=O)c2ccc(F)cc2Cl)c2c1C(=O)NCC1(CCOCC1)C2 [Example 77, 3-(3-ethyl-4-oxo-spiro[6,8-dihydro-5H-pyrazolo[4,3-c]azepine-7,4′-tetrahydropyran]-1-yl)propyl 2-chloro-4-fluoro-benzoate]	< 100 nM
CCc1nn(C[C@@H](C)COC(=O)c2ccc(S(=O)(=O)C(C)C)cc2)c2c1C(=O)NCC1(CCOCC1)C2 [Example 243, [(2R)-3-(3-ethyl-4-oxo-spiro[6,8-dihydro-5H-pyrazolo[4,3-c]azepine-7,4′-tetrahydropyran]-1-yl)-2-methyl-propyl] 4-isopropylsulfonylbenzoate]	< 100 nM
CCc1nn(CCCOC(=O)c2ccc(F)cc2C)c2c1C(=O)NCC1(CCOCC1)C2 [Example 38, 3-(3-ethyl-4-oxo-spiro[6,8-dihydro-5H-pyrazolo[4,3-c]azepine-7,4′-tetrahydropyran]-1-yl)propyl 4-fluoro-2-methyl-benzoate]	< 100 nM
CCc1nn(C[C@@H](C)COC(=O)c2ccc(C(F)F)cc2)c2c1C(=O)NCC1(CCOCC1)C2 [Example 197, [(2R)-3-(3-ethyl-4-oxo-spiro[6,8-dihydro-5H-pyrazolo[4,3-c]azepine-7,4′-tetrahydropyran]-1-yl)-2-methyl-propyl] 4-(difluoromethyl)benzoate]	< 100 nM
CCc1nn(CCCOC(=O)c2ccc(C(N)=O)cc2)c2c1C(=O)NCC1(CCOCC1)C2 [Example 140, 3-(3-ethyl-4-oxo-spiro[6,8-dihydro-5H-pyrazolo[4,3-c]azepine-7,4′-tetrahydropyran]-1-yl)propyl 4-carbamoylbenzoate]	< 100 nM
CCc1nn(CCCOC(=O)[C@H]2CC[C@@H](O)CC2)c2c1C(=O)NCC1(CCOCC1)C2 [Example 21, 3-(3-ethyl-4-oxo-spiro[6,8-dihydro-5H-pyrazolo[4,3-c]azepine-7,4′-tetrahydropyran]-1-yl)propyl cis-4-hydroxycyclohexane-carboxylate]	100 to 500 nM
CCc1nn(CCCOC(=O)c2cccc(C(=O)NC)c2)c2c1C(=O)NCC1(CCOCC1)C2 [Example 151, 3-(3-ethyl-4-oxo-spiro[6,8-dihydro-5H-pyrazolo[4,3-c]azepine-7,4′-tetra-hydropyran]-1-yl)propyl 3-(methylcarbamoyl)benzoate]	< 100 nM
CCc1nn(CCCOC(=O)c2ccccc2Cl)c2c1C(=O)NCC1(CCOCC1)C2 [Example 40, 3-(3-ethyl-4-oxo-spiro[6,8-dihydro-5H-pyrazolo[4,3-c]azepine-7,4′-tetrahydropyran]-1-yl)propyl 2-chlorobenzoate]	< 100 nM
CCc1nn(CCCOC(=O)c2ccc(C)cc2)c2c1C(=O)NCC1(CCOCC1)C2 [Example 1, 3-(3-Ethyl-4-oxo-spiro[6,8-dihydro-5H-pyrazolo[4,3-c]azepine-7,4′-tetrahydropyran]-1-yl)propyl 4-methylbenzoate]	< 100 nM
CCc1nn(C[C@@H](C)COC(=O)c2ccc(C(=O)N3CCN(C(C)=O)CC3)cc2)c2c1C(=O)NCC1(CCOCC1)C2 [Example 262, [(2R)-3-(3-ethyl-4-oxo-spiro[6,8-dihydro-5H-pyrazolo[4,3-c]azepine-7,4′-tetrahydropyran]-1-yl)-2-methyl-propyl] 4-(4-acetylpiperazine-1-carbonyl)benzoate]	< 100 nM
CCc1nn(CCCOC(=O)c2cccc(C(=O)N3CCCC3)c2)c2c1C(=O)NCC1(CCOCC1)C2 [Example 155, 3-(3-ethyl-4-oxo-spiro[6,8-dihydro-5H-pyrazolo[4,3-c]azepine-7,4′-tetrahydropyran]-1-yl)propyl 3-(pyrrolidine-1-carbonyl)benzoate]	< 100 nM
CCc1nn(C[C@@H](C)COC(=O)c2cc(F)cc(C(F)(F)F)c2)c2c1C(=O)NCC1(CCOCC1)C2 [Example 225, [(2R)-3-(3-ethyl-4-oxo-spiro[6,8-dihydro-5H-pyrazolo[4,3-c]azepine-7,4′-tetrahydropyran]-1-yl)-2-methyl-propyl] 3-fluoro-5-(trifluoromethyl)benzoate]	< 100 nM
CCc1nn(C[C@@H](C)COC(=O)c2ccc(C(F)(F)F)c(OC)c2)c2c1C(=O)NCC1(CCOCC1)C2 [Example 233, [(2R)-3-(3-ethyl-4-oxo-spiro[6,8-dihydro-5H-pyrazolo[4,3-c]azepine-7,4′-tetrahydropyran]-1-yl)-2-methyl-propyl] 3-methoxy-4-(trifluoromethyl)benzoate]	< 100 nM
CCc1nn(C[C@@H](C)COC(=O)c2cc(F)ccc2F)c2c1C(=O)NCC1(CCOCC1)C2 [Example 177, [(2R)-3-(3-ethyl-4-oxo-spiro[6,8-dihydro-5H-pyrazolo[4,3-c]azepine-7,4′-tetrahydropyran]-1-yl)-2-methyl-propyl] 2,5-difluorobenzoate]	< 100 nM
CCc1nn(C[C@@H](C)COC(=O)c2cc(F)ccc2C(F)(F)F)c2c1C(=O)NCC1(CCOCC1)C2 [Example 223, [(2R)-3-(3-ethyl-4-oxo-spiro[6,8-dihydro-5H-pyrazolo[4,3-c]azepine-7,4′-tetrahydropyran]-1-yl)-2-methyl-propyl] 5-fluoro-2-(trifluoromethyl)benzoate]	< 100 nM
CCc1nn(CCCOC(=O)CCS(C)(=O)=O)c2c1C(=O)NCC1(CCOCC1)C2 [Example 31, 3-(3-ethyl-4-oxo-spiro[6,8-dihydro-5H-pyrazolo[4,3-c]azepine-7,4′-tetrahydropyran]-1-yl)propyl 3-methylsulfonylpropanoate]	> 500 nM
CCc1nn(C[C@@H](C)COC(=O)c2ccc(C(F)(F)F)cc2)c2c1C(=O)NCC1(CCOCC1)C2 [Example 212, [(2R)-3-(3-ethyl-4-oxo-spiro[6,8-dihydro-5H-pyrazolo[4,3-c]azepine-7,4′-tetrahydropyran]-1-yl)-2-methyl-propyl] 4-(trifluoromethyl)benzoate]	< 100 nM
CCc1nn(CCCOC(=O)c2cccc(S(=O)(=O)CC)c2)c2c1C(=O)NCC1(CCOCC1)C2 [Example 114, 3-(3-ethyl-4-oxo-spiro[6,8-dihydro-5H-pyrazolo[4,3-c]azepine-7,4′-tetrahydropyran]-1-yl)propyl 3-ethylsulfonylbenzoate]	< 100 nM
CCc1nn(C[C@@H](C)COC(=O)c2cc(Cl)ccc2F)c2c1C(=O)NCC1(CCOCC1)C2 [Example 202, [(2R)-3-(3-ethyl-4-oxo-spiro[6,8-dihydro-5H-pyrazolo[4,3-c]azepine-7,4′-tetrahydropyran]-1-yl)-2-methyl-propyl] 5-chloro-2-fluoro-benzoate]	< 100 nM
CCc1nn(CCCOC(=O)c2cc(F)cc(OC)c2)c2c1C(=O)NCC1(CCOCC1)C2 [Example 63, 3-(3-ethyl-4-oxo-spiro[6,8-dihydro-5H-pyrazolo[4,3-c]azepine-7,4′-tetrahydropyran]-1-yl)propyl 3-fluoro-5-methoxy-benzoate]	< 100 nM

Same assay, conditions: read-out: PDE4 IC50 range

SMILES	IC50
CCc1nn(CC(C)(C)COC(=O)c2cccc(C(=O)N3CCN(C(C)=O)CC3)c2)c2c1C(=O)NCC1(CCOCC1)C2 [Example 349, [3-(3-ethyl-4-oxo-spiro[6,8-dihydro-5H-pyrazolo[4,3-c]azepine-7,4′-tetrahydropyran]-1-yl)-2,2-dimethyl-propyl] 3-(4-acetylpiperazine-1-carbonyl)benzoate]	< 100 nM
CCOc1cccc(C(=O)OCC(C)(C)Cn2nc(CC)c3c2CC2(CCOCC2)CNC3=O)c1 [Example 299, [3-(3-ethyl-4-oxo-spiro[6,8-dihydro-5H-pyrazolo[4,3-c]azepine-7,4′-tetrahydropyran]-1-yl)-2,2-dimethyl-propyl] 3-ethoxybenzoate]	< 100 nM
CCc1nn(CC(C)(C)COC(=O)c2ccc(C(=O)NC(C)C)cc2)c2c1C(=O)NCC1(CCOCC1)C2 [Example 332, [3-(3-ethyl-4-oxo-spiro[6,8-dihydro-5H-pyrazolo[4,3-c]azepme-7,4′-tetrahydropyran]-1-yl)-2,2-dimethyl-propyl] 4-(isopropylcarbamoyl)benzoate]	< 100 nM
CCc1nn(C[C@@H](C)COC(=O)c2cccc(C(=O)N3CCCC3)c2)c2c1C(=O)NCC1(CCOCC1)C2 [Example 268, [(2R)-3-(3-ethyl-4-oxo-spiro[6,8-dihydro-5H-pyrazolo[4,3-c]azepine-7,4′-tetrahydropyran]-1-yl)-2-methyl-propyl] 3-(pyrrolidine-1-carbonyl)benzoate]	< 100 nM
CCc1nn(CC(C)(C)COC(=O)c2ccc(C#N)c(F)c2)c2c1C(=O)NCC1(CCOCC1)C2 [Example 297, [3-(3-ethyl-4-oxo-spiro[6,8-dihydro-5H-pyrazolo[4,3-c]azepine-7,4′-tetrahydropyran]-1-yl)-2,2-dimethyl-propyl] 4-cyano-3-fluoro-benzoate]	< 100 nM
CCc1nn(CCCCOC(=O)c2ccc(S(=O)(=O)N3CCCC3)cc2)c2c1C(=O)NCC1(CCOCC1)C2 [Example 377, 4-(3-ethyl-4-oxo-spiro[6,8-dihydro-5H-pyrazolo[4,3-c]azepme-7,4′-tetrahydropyran]-1-yl)butyl 4-pyrrolidin-1-ylsulfonylbenzoate]	100 to 500 nM
CCc1nn(C[C@H](C)COC(=O)c2ccc(Cl)cc2)c2c1C(=O)NCC1(CCOCC1)C2 [Example 279, [(2S)-3-(3-ethyl-4-oxo-spiro[6,8-dihydro-5H-pyrazolo[4,3-c]azepine-7,4′-tetrahydropyran]-1-yl)-2-methyl-propyl] 4-chlorobenzoate]	< 100 nM
CCc1nn(CCCCOC(=O)c2ccc(C)cc2)c2c1C(=O)NCC1(CCOCC1)C2 [Example 365, 4-(3-ethyl-4-oxo-spiro[6,8-dihydro-5H-pyrazolo[4,3-c]azepine-7,4′-tetrahydropyran]-1-yl)butyl 4-methylbenzoate]	< 100 nM
CCc1nn(CC(C)(C)COC(=O)c2c(F)cccc2Cl)c2c1C(=O)NCC1(CCOCC1)C2 [Example 300, [3-(3-ethyl-4-oxo-spiro[6,8-dihydro-5H-pyrazolo[4,3-c]azepine-7,4′-tetrahydropyran]-1-yl)-2,2-dimethyl-propyl] 2-chloro-6-fluoro-benzoate]	< 100 nM

Source: patent US10906915B2, “Substituted pyrazoloazepin-4-ones and their use as phosphodiesterase inhibitors” (LEO Pharma A/S, priority 2016, dated 2021)
